# Measured values as given in US5646316A, “Bile acid inhibitors of metalloproteinase enzymes” (OsteoArthritis Sciences, Inc., priority 1995, dated 1997).
# Read-outs that look alike come from different tables or passages of the source.
# Experiments:
# Assay type in all cases: biochemical
# stromelysin = stromelysin (Homo sapiens, UniProt P08254); test: Assay of Stromelysin Inhibition Activity (fluorogenic substrate hydrolysis); details: for IC50: 60 minutes incubation; for inhibition at 10 µM: read-out: percent inhibition of stromelysin
# Experimental: (§1) Stromelysin was first activated by trypsin. This was done by preparing a reaction mixture in B-150 (B-150 consists of 150 mM NaCl, 20 mM Tris at pH 7.8 and 0.02% sodium azide) containing a final concentration of 4 μg/mL trypsin, 1.48 μg/mL of stromelysin, and 3.15 mM CaCl2. The reaction was incubated for 30 minutes at 37° C. and then quenched by adding soybean trypsin inhibitor to a final concentration of 43.6 μg/mL. ZnCl2 was added to the reaction mixture for a total concentration of 0.24 μM.
# (§2) Following preparation of the solution of activated stromelysin, assay solutions were prepared for each inhibitor being tested. A control was also prepared. First, […] of activated stromelysin (about 45 μL from the solution of activated stromelysin) were aliquotted per assay tube. A 2.5 mM solution in 100% dimethyl sulfoxide (DMSO) was prepared for each inhibitor being tested and 1 μL from each inhibitor solution was added to one of the assay tubes. In addition, 1 μL of 100% DMSO was added to the control assay tube. All assay tubes were then pre-incubated for 5 minutes.
# (§3) 5 μL of a previously prepared 50 μM solution of substrate in 15% DMSO were added to each assay tube. The substrate was a methoxycumarin developed by Knight et al. FEBS Lett. 296:263-66 (1992). The tubes were then incubated for 60 minutes, at which time the reaction was stopped with the addition of 750 μL of 0.1M NaAc pH 4.0 buffer.
# (§4) Substrate hydrolysis was assessed by fluorescence using a slit width of 10:10, excitation at 328 nm and emission at 393 nm. The results of these assays are listed in Table I as percent inhibition at 10 μM of the bile acid provided compound tested or as the IC50.
# collagenase = test: Assay of Collagenase Inhibition Activity; details: at 10 μM of compound; 45 minutes at 37° C.
# Experimental: as §1, §2, §3, §4
# (§5) The assay procedure for collagenase was the same as described in Example 13 for stromelysin except that the trypsin activation was performed for 45 minutes. In addition, the incubation of the assay tubes at 37° C. was only for 45 minutes, and the final enzyme concentration is 6 nm. The results of these assays are provided in Table I as percent inhibition at 10 μM of the compound tested.
# gelatinase (72 (Kd)) = molecular target: T1, gelatinase (72 (Kd) (Homo sapiens, UniProt P08253)); test: Assay of Gelatinase Inhibition Activity (72 Kd gelatinase); details: 60 minutes at 37° C.; for inhibition at 10 µM: at 10 μM of compound, read-out: percent inhibition of gelatinase
# T1 sequence (P08253 110-660): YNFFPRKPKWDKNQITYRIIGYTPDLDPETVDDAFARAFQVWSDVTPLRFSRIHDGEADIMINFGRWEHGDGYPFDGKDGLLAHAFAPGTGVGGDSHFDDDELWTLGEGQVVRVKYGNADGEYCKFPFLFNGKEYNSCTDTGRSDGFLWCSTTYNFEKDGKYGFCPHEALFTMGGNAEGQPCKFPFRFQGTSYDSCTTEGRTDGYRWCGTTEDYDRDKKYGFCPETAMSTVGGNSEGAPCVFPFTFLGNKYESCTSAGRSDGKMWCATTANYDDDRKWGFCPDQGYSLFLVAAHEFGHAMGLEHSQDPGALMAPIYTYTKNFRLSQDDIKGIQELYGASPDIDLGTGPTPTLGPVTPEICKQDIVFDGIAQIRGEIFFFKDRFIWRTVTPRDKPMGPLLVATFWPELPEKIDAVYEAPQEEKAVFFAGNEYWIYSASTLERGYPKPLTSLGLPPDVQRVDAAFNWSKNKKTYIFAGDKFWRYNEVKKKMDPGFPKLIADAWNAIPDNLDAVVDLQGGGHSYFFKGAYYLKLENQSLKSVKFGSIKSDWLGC
# Experimental: as §1, §2, §3, §4
# as §5, with “gelatinase (72 (Kd)” for “collagenase”, “60” for “45”, “was” for “was only”, “was 3” for “is 6”, “listed” for “provided”
# Chain of stromelysin (P08254 100-477): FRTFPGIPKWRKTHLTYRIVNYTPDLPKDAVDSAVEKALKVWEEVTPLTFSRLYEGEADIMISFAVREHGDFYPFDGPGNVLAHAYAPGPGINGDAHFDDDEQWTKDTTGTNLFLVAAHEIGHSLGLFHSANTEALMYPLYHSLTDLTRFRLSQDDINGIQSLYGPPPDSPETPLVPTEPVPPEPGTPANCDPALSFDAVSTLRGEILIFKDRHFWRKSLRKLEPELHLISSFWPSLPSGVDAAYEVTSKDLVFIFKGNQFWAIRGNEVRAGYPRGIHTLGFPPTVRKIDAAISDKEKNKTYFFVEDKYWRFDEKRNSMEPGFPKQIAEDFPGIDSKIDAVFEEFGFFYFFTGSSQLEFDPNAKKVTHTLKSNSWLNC
SMILES,IC50 (stromelysin) [µM],percent inhibition of collagenase (collagenase) [%],inhibition at 10 µM (stromelysin) [%],IC50 (gelatinase (72 (Kd))) [µM],inhibition at 10 µM (gelatinase (72 (Kd))) [%],inhibition at 10 µM (stromelysin; at 10 μM of compound) [%]
"C[C@H](CCC(=O)O)[C@H]1CC[C@H]2[C@@H]3CC[C@@H]4C[C@H](O)CC[C@]4(C)[C@H]3CC[C@]12C [Compound 1, Lithocholic acid, reference compound]",38,27,,,,
"C[C@H](CCC(=O)NCCC[N+](C)(C)CCCS(=O)(=O)[O-])[C@H]1CC[C@H]2[C@@H]3[C@H](O)C[C@@H]4C[C@H](O)CC[C@]4(C)[C@H]3C[C@H](O)[C@]12C [Compound 8, 3-[(3-cholamidopropyl)dimethylammonio)-1-propanesulfonate, reference compound]",,22,26,,,
"CC(C)C[C@H](NC(=O)CC[C@@H](C)[C@H]1CC[C@H]2[C@@H]3CC[C@@H]4C[C@H](O)CC[C@]4(C)[C@H]3CC[C@]12C)C(=O)NO [Compound 9, Lithocholyl-(L)-Leucine Hydroxamic Acid]",1,27,,0.3,,
"CC(C)C[C@H](NC(=O)CC[C@@H](C)[C@H]1CC[C@H]2[C@@H]3[C@H](O)C[C@@H]4C[C@H](O)CC[C@]4(C)[C@H]3CC[C@]12C)C(=O)NO [Compound 10, Chenodeoxycholyl-(L)-Leucine Hydroxamic Acid]",5,8,,,27,
"C[C@H](CCC(=O)NOCc1ccccc1)[C@H]1CC[C@H]2[C@@H]3[C@H](O)C[C@@H]4C[C@H](O)CC[C@]4(C)[C@H]3CC[C@]12C [Compound 12, Chenodeoxycholyl-O-Benzylhyroxamate]",,21,,,,5
"C[C@H](CCC(=O)NO)[C@H]1CC[C@H]2[C@@H]3CC[C@@H]4C[C@H](O)CC[C@]4(C)[C@H]3CC[C@]12C [Compound 13, Lithocholylhydroxamic Acid]",,35,,8,,56
"C[C@H](CCC(=O)N[C@@H](Cc1ccccc1)C(=O)NO)[C@H]1CC[C@H]2[C@@H]3CC[C@@H]4C[C@H](O)CC[C@]4(C)[C@H]3CC[C@]12C [Compound 15, Lithocholyl-(L)-Phenylalanine Hydroxamic Acid]",,58,,,47,85
"C[C@H](CCC(=O)N[C@@H](Cc1ccccc1)C(=O)NO)[C@H]1CC[C@H]2[C@@H]3[C@H](O)C[C@@H]4C[C@H](O)CC[C@]4(C)[C@H]3CC[C@]12C [Compound 16, Chenodeoxycholyl-(L)-Phenylalanine Hydroxamic Acid]",,38,,,23,80
"CCOC(=O)[C@H](CS)NC(=O)[C@H](Cc1ccccc1)NC(=O)CC[C@@H](C)[C@H]1CC[C@H]2[C@@H]3CC[C@@H]4C[C@H](O)CC[C@]4(C)[C@H]3CC[C@]12C [Compound 19, Lithocholyl-(L)-Phenylalanyl-(L)-Cysteine Ethyl Ester]",2,33,,,47,
"C[C@H](CCC(=O)N[C@@H](Cc1ccccc1)C(=O)NC1CCSC1=O)[C@H]1CC[C@H]2[C@@H]3CC[C@@H]4C[C@H](O)CC[C@]4(C)[C@H]3CC[C@]12C (stereo partly drawn) [Compound 20, Lithocholyl-Phenylalanylhomocysteine Thiolactone]",,57,,,30,57
